Assay results from ChEMBL document CHEMBL5230126, “Cyclic tailor-made amino acids in the design of modern pharmaceuticals” (Eur J Med Chem, 2020).

Columns and labels:
[1] = target: T1, Orexin/Hypocretin receptor type 1 (Homo sapiens) (UniProt O43613); assay: Antagonist activity at human OX1 receptor; settings: filed as antagonist
T1 sequence (whole entry): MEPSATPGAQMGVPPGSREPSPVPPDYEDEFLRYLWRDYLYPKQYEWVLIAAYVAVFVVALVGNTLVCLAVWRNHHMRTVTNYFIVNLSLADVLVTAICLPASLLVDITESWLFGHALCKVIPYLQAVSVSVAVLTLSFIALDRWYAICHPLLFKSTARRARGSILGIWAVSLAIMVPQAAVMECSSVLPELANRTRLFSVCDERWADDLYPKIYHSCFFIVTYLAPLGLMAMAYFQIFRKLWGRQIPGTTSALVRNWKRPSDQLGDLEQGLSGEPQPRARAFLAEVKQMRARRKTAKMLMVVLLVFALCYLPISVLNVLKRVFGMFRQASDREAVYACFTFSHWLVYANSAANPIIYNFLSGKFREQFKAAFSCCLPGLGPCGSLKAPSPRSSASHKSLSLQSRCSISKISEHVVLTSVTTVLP

[2] = Displacement of [125I]-Ang II from rat liver membrane AT1R incubated for 3 hrs; format: cell membranes
[3] = Displacement of [125I]-Ang II from rabbit uterine membrane AT2R incubated for 3 hrs in presence of DuP 753; format: cell membranes, Oryctolagus cuniculus, Uterus
Orexin receptor type 2 = target: T2, Orexin receptor type 2 (Homo sapiens, UniProt O43614); assay: Inhibition of human orexin 2
T2 sequence (O43614 whole entry): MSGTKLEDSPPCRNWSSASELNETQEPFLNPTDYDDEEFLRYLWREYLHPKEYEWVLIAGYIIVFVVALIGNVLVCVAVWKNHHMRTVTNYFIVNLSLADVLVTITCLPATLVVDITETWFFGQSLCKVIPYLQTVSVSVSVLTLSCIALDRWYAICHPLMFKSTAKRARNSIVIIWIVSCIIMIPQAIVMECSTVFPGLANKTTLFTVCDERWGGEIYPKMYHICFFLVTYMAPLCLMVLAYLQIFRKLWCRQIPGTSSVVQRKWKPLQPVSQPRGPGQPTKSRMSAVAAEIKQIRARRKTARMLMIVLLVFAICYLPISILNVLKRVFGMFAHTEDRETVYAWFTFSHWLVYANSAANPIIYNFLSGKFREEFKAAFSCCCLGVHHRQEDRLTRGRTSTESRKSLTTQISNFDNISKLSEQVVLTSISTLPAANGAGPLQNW

[4] = target: T3, Orexin/Hypocretin receptor type 1 (Homo sapiens, UniProt O43613); assay: Inhibition of human orexin 1
T3 sequence (O43613 whole entry): T1 sequence (whole entry)

SMILES | pKb [1] | IC50 [2] [nM] | IC50 [3] [nM] | Ki (Orexin receptor type 2) [nM] | Ki [4] [nM]
Cc1ccc(-c2cnccn2)c(C(=O)N2CCC3(CC3)C[C@H]2CNc2cccc(C(F)(F)F)n2)c1 | 8 | – | – | – | –
Cc1cc(Cn2cnc3c2C[C@@H](C(=O)O)N(C(=O)C(c2ccccc2)c2ccccc2)C3)ccc1N(C)C | – | > 10000 | 6.9 | – | –
COc1ccc2c(c1OCc1ccccc1)C[C@@H](C(=O)O)N(C(=O)C(c1ccccc1)c1ccccc1)C2 [OLODANRIGAN] | – | > 10000 | 0.58 | – | –
Cc1ccc(-c2ncccn2)c(C(=O)N2C[C@@H]3C[C@@H]3C[C@H]2CNc2nnc(C(F)(F)F)s2)n1 | – | – | – | 1580 | 79.4
